In US9375484B2, “Taxane silicate prodrugs and nanoparticles” (REGENTS OF THE UNIVERSITY OF MINNESOTA, priority 2011, dated 2016):
Read-outs that look alike come from different tables or passages of the source. Marks after values point to notes of the source that are not given here.

Columns and labels:
[1] = PTX silicate hydrolysis rates by 1H NMR; format: physicochemical; conditions: for krel at C2′ (hydrolysis rate relative to the slowest, 1d) / krel at C7 (hydrolysis rate relative to the slowest, 1d): d6-acetone:D2O:TFA 90:9:1, room temperature; for krel at C2′ (hydrolysis rate relative to the slowest, 1d): 1d = 1.0, ± SD of three trials; for krel at C7 (hydrolysis rate relative to the slowest, 1d): for 2a/2b rate of in situ generated 3a/3b to PTX
Method: A known quantity of a PTX prodrug was dissolved in 900 μL of d6-acetone. To this homogenous solution, 100 μL of a 9:1 solution of D2O: trifluoroacetic acid (TFA) was added, and the solution was vigorously mixed. The ^1H NMR spectra was taken (16 transients) on a 500 MHz Varian instrument at multiple time points over the course of more than three half-lives. The study was conducted at room temperature (rt=22.5° C.±1.0° C.) Upon completion of the study, the 2′ and/or 7 methine resonances were integrated in a baseline-adjusted NMR spectrum using MestRec software. The relative integrations were used to determine the extent of hydrolysis. The data from three replications was plotted on a semi-log scale to determine the kobs of the prodrug that were then converted to the krel data as presented, defining the rate of the most slowly hydrolyzed prodrug (1d) as krel=1.0. Errors are defined as the standard deviation of the three trials.
^1H NMR spectroscopy was used to establish relative hydrolysis rates of compounds 1-3. The compounds were dissolved in a solution of d6-acetone, D2O, and trifluoroacetic acid (TFA) in a 90:9:1 ratio (v/v/v). Resonances of, e.g., H2′ in the reactant silicate vs. product carbinol were monitored.

MDA-MB-231 cells = assay: MTT cytotoxicity of PTX silicate prodrugs; format: cell-based, human
Method: MDA-MB-231 and MDA-MB-231 Luciferase positive cells were maintained independently in MEM supplemented with 1% pen/strep and 10% FBS at 37° C. in a humidified incubator. MDA-MB-231 cells were obtained from the American Type Culture Collection. MDA-MB-231 Luc+ cells were obtained from CaliperLS (Hopkinton, Mass., USA). For MTT cytotoxicity studies, MDA-MB-231 cells were seeded at 8,000 cells/well in a 96 well plate in 100 μL MEM with 5% FBS. Paclitaxel, and paclitaxel silicate prodrug stock solutions of 10 mM were prepared in DMSO. Stock solutions were diluted to 2× concentration in MEM with 5% FBS, 100 μL volume, and pipetted into the 96 well plate. Concentration ranges were from 1-10,000 nM. After 48 hours, 30 μL of MTT working reagent was added to cells. Absorbance at 490 nm was monitored on a 96 well plate UV vis detector at 60 minutes. IC50 values were determined by nonlinear regression analysis of log concentration v. response data obtained from the MTT assay. The IC50 was interpolated from the resulting curves using Graphpad Prism v5.1 (Graphpad Software Inc. La Jolla Calif., USA).
Cytotoxicity of the PTX silicate prodrugs 1-3 was examined in the MDA-MB-231 human breast cancer cell line (Table 2).

Orthotopic 4T1 tumors = assay: 4T1 tumor growth in mice; format: in vivo, BALB/c mice
Method: Orthotopic 4T1 tumors were grown by injecting ˜1×10^6 tumor cells in the mammary fat pad of BALB/c mice. When the tumors were about 100 mm^3 in volume, the animals were injected with a single dose of paclitaxel dissolved in 1:1 mix of ethanol and cremophor (same formulation as Taxol®), silicate prodrug (2a) dissolved in 1:1 mix of ethanol and cremophor (same formulation as Taxol®), or silicate prodrug nanoparticles dispersed in buffered saline. Untreated animals or those treated with just cremophor/ethanol vehicle were used as controls. […] This study clearly indicates the benefit of formulating paclitaxel in the form of silicate prodrug nanoparticle formulation.

[2] = tested on: Tumor cells (4T1, PANC-1 or MDA-MB-231); assay: Cytotoxicity against tumor cells in vitro (MTS assay); format: cell-based; conditions: 72 hours, FIG. 2
Method: Tumor cells (4T1, PANC-1 or MDA-MB-231) were seeded in 96-well plates and allowed to attach. Cells were then treated with paclitaxel (solubilized in growth medium using ethanol), silicate prodrug (2a, solubilized in growth medium using ethanol), silicate prodrug nanoparticles (a 58:42 wt % mixture of the bis-triethyl silicate paclitaxel prodrug 2a and a 5K-10K PEG-PLGA BCP dispersed in growth medium) or copolymer-only (blank, no drug) nanoparticles for 72 hours. Cell viability was then measured using a standard MTS assay kit (Promega).

## CCCCCCCCO[Si](OCCCCCCCC)(OCCCCCCCC)OC(C(=O)OC1CC2(O)C(OC(=O)c3ccccc3)C3C4(OC(C)=O)COC4CC(O[Si](OCCCCCCCC)(OCCCCCCCC)OCCCCCCCC)C3(C)C(=O)C(OC(C)=O)C(=C1C)C2(C)C)C(NC(=O)c1ccccc1)c1ccccc1 (centres unmarked) [Compound 2b, 2′,7-Di-O-(tri-n-octylorthosilyl)paclitaxel]
[1]
  krel at C2′ (hydrolysis rate relative to the slowest, 1d): 460 ± 10
  krel at C7 (hydrolysis rate relative to the slowest, 1d): 41 ± 3^b

## CCO[Si](OCC)(OCC)O[C@@H](C(=O)O[C@H]1C[C@@]2(O)[C@@H](OC(=O)c3ccccc3)[C@@H]3[C@]4(OC(C)=O)CO[C@@H]4C[C@H](O)[C@@]3(C)C(=O)[C@H](OC(C)=O)C(=C1C)C2(C)C)[C@@H](NC(=O)c1ccccc1)c1ccccc1 [Compound 1a, 2′-O-(triethylorthosilyl)paclitaxel]
[1]; 1a versus 1d
  difference of krel values between the extremes 1a and 1d: > 2000 ×
[1]
  krel at C2′ (hydrolysis rate relative to the slowest, 1d): 2200 ± 600
[1]; hydrolysis rates of 1a and 1b called similar
  krel of 1a relative to 1b: ca. 3
MDA-MB-231 cells; Homo sapiens, MDA-MB-231, 48 h
  IC50: 0.023 µM

## CCO[Si](O[C@@H](C(=O)O[C@H]1C[C@@]2(O)[C@@H](OC(=O)c3ccccc3)[C@@H]3[C@]4(OC(C)=O)CO[C@@H]4C[C@H](O)[C@@]3(C)C(=O)[C@H](OC(C)=O)C(=C1C)C2(C)C)[C@@H](NC(=O)c1ccccc1)c1ccccc1)(OC(C)(C)C)OC(C)(C)C [Compound 1d, 2′-O-(di-t-butylethylorthosilyl)paclitaxel]
[1]
  krel at C2′ (hydrolysis rate relative to the slowest, 1d): 1.0 ± 0.1
MDA-MB-231 cells; Homo sapiens, MDA-MB-231, 48 h
  IC50: 8.14 µM

## CC(=O)O[C@H]1C(=O)[C@@]2(C)[C@H]([C@H](OC(=O)c3ccccc3)[C@]3(O)C[C@H](OC(=O)[C@H](O)[C@@H](NC(=O)c4ccccc4)c4ccccc4)C(C)=C1C3(C)C)[C@]1(OC(C)=O)CO[C@@H]1C[C@@H]2O [PTX, paclitaxel]
Orthotopic 4T1 tumors; Day 13, single dose, tumors about 100 mm^3 at injection
  tumor volume: 1450±65 mm^3
Orthotopic 4T1 tumors; single injection, BALB/c mice
  reaction at the site of injection: severe tissue irritation and necrosis at the site of injection
MDA-MB-231 cells; Homo sapiens, MDA-MB-231 cells, cell viability measured after 48 h, MTT, read-out: IC50
  IC50: 0.0236 µM

## CC(=O)O[C@H]1C(=O)[C@@]2(C)[C@H]([C@H](OC(=O)c3ccccc3)[C@]3(O)C[C@H](OC(=O)[C@H](O[Si](OC(C)C)(OC(C)C)OC(C)C)[C@@H](NC(=O)c4ccccc4)c4ccccc4)C(C)=C1C3(C)C)[C@]1(OC(C)=O)CO[C@@H]1C[C@@H]2O [Compound 1c, 2′-O-(tri-i-propylorthosilyl)paclitaxel]
[1]
  krel at C2′ (hydrolysis rate relative to the slowest, 1d): 69 ± 4
MDA-MB-231 cells; Homo sapiens, MDA-MB-231, 48 h
  IC50: 0.0245 µM

## CCO[Si](OCC)(OCC)O[C@H]1C[C@H]2OC[C@@]2(OC(C)=O)[C@H]2[C@H](OC(=O)c3ccccc3)[C@]3(O)C[C@H](OC(=O)[C@H](O)[C@@H](NC(=O)c4ccccc4)c4ccccc4)C(C)=C([C@@H](OC(C)=O)C(=O)[C@]12C)C3(C)C [Compound 3a, 7-O-(triethylorthosilyl)paclitaxel]
[1]
  krel at C7 (hydrolysis rate relative to the slowest, 1d): 270 ± 10^
MDA-MB-231 cells; Homo sapiens, MDA-MB-231, 48 h
  IC50: 0.0214 µM

## CCCCCCCCO[Si](OCCCCCCCC)(OCCCCCCCC)O[C@H]1C[C@H]2OC[C@@]2(OC(C)=O)[C@H]2[C@H](OC(=O)c3ccccc3)[C@]3(O)C[C@H](OC(=O)[C@H](O)[C@@H](NC(=O)c4ccccc4)c4ccccc4)C(C)=C([C@@H](OC(C)=O)C(=O)[C@]12C)C3(C)C [Compound 3b, 7-O-(tri-n-octylorthosilyl)paclitaxel]
[1]
  krel at C7 (hydrolysis rate relative to the slowest, 1d): 55 ± 3^
MDA-MB-231 cells; Homo sapiens, MDA-MB-231, 48 h
  IC50: 0.54 µM

## CCCCCCCCO[Si](OCCCCCCCC)(OCCCCCCCC)OC(C(=O)OC1CC2(O)C(OC(=O)c3ccccc3)C3C4(OC(C)=O)COC4CC(O)C3(C)C(=O)C(OC(C)=O)C(=C1C)C2(C)C)C(NC(=O)c1ccccc1)c1ccccc1 (centres unmarked) [Compound 1b, 2-O-(tri-n-octylorthosilyl)paclitaxel]
[1]
  krel at C2′ (hydrolysis rate relative to the slowest, 1d): 710 ± 30
MDA-MB-231 cells; MDA-MB-231 cells, cell viability measured after 48 h, MTT, read-out: IC50
  IC50: 0.0356 µM

## CCO[Si](OCC)(OCC)O[C@H]1C[C@H]2OC[C@@]2(OC(C)=O)[C@H]2[C@H](OC(=O)c3ccccc3)[C@]3(O)C[C@H](OC(=O)[C@H](O[Si](OCC)(OCC)OCC)[C@@H](NC(=O)c4ccccc4)c4ccccc4)C(C)=C([C@@H](OC(C)=O)C(=O)[C@]12C)C3(C)C [Compound 2a, 2′,7-Di-O-(triethylorthosilyl)paclitaxel]
[2]
  anticancer efficacy (cell viability) compared with paclitaxel: anticancer efficacy similar to the parent compound
[1]
  krel at C2′ (hydrolysis rate relative to the slowest, 1d): 1800 ± 100
  krel at C7 (hydrolysis rate relative to the slowest, 1d): 250 ± 10^a
MDA-MB-231 cells; Homo sapiens, MDA-MB-231, 48 h
  IC50: 0.0744 µM
